Test results reported in patent publication US11229628B2, “TRPA1 and TRPV4 inhibitors and methods of using the same for organ-specific inflammation and itch” (Duke University, priority 2015, dated 2022).
“Also recorded” adds a separate entry of the source. Where a SMILES comes first, the peptide text is derived from it. [ ]: non-standard residue; d: D form.

Assays:
[1] = biological target: T1, TRPV4 (Mus musculus, UniProt Q9EPK8); experiment: GSK101-evoked Ca++ transient in 1° MK (fura-2); format: cell-based; conditions: 5 nM GSK101
T1 construct: Primary mouse keratinocytes were derived from back skin of newborn mice; endogenous in cells; host or cells: primary mouse epidermal keratinocytes (1° MK), wild type
Description: (§1) Ca++ imaging of mouse 1° MK in response to chemical activation of TRPV4 was conducted after loading with 2 μM fura2-AM, following a ratiometric Ca2+ imaging protocol with 340/380 nm […] for dual excitation. Ratios of emissions were acquired at 0.5 Hz. ΔR/R0 was determined as the fraction of the increase of a given ratio over baseline ratio, divided by baseline ratio. For stimulation of cells with UVB, where fura-2 was not suitable because of the proximity of stimulation with 340/380 nm and 295 nm, 2 μM fluo4-AM was used instead. Ca++ imaging was carried out at 488 nm excitation, acquisition of emissions at 0.5 Hz, expressed as ΔF/F0. In the custom-built UV optical system, UV LEDs were capped with a ball lens, a transparent optical window in the shape of a hemispherical lens (FIG. 2B). The LED output optical beam focused at 15-20 mm from the lens, with a spot diameter of approximately 1.5˜2.0 mm (FIG. 2C). […] The thermal equilibration stage was set for physiological temperature. We confirmed the non-thermal nature of UVB stimulation using the customized 295 nm LED device in a dedicated experiment (FIG. 2D), thus confirming the specific modality of stimulation as UVB.
We obtained corroborating findings by chemically activating TRPV4 with GSK101, which can directly stimulate TRPV4 in WT 1° MK. […]

[2] = system: primary mouse epidermal keratinocytes (1° MK); experiment: UVB-evoked Ca++ signaling in primary mouse keratinocytes (fluo-4 imaging); format: cell-based; conditions: for UVB-evoked Ca++ signaling: fluo-4 ΔF/F0, GSK205 20 μM; for ET1-augmented UVB-evoked Ca++ signaling: UVB and ET1 co-exposure
Description: Ca++ imaging of 1° MK was conducted following routine procedures. For UVB stimulation, a customized device was built. The system comprised a printed circuit board for electrical interconnects and mechanical support and an ultraviolet light-emitting diode (UV LED).
The operating wavelength was 295 nm (FIG. 2A), with a full-width half-max of 12 nm. The optical power was 500 mW. The focal point was aimed at the plane of the upper surface of the quartz coverslip, which was used to minimize UV absorption along the optical path towards the cells (FIG. 2A-C). The optical intensity at the focal point was estimated to be 150 mW/mm^2.
as §1, with “temperature.” for “temperature. We confirmed the non-thermal nature of UVB stimulation using the customized 295 nm LED device in a dedicated experiment (FIG. 2D), thus confirming the specific modality of stimulation as UVB.”
To further dissect the underlying mechanisms involved, we built a customized device for specific and narrow-band UVB stimulation of primary mouse epidermal keratinocytes (1° MK) cultured in vitro (FIG. 6A-B and FIG. 2A-D). This allowed use of the Ca++ sensitive dye, fluo-4, and assessment of 1° MK's Ca++ dynamics following UVB exposure (FIG. 6B). The elicited Ca++ signal was obliterated by a UV-refracting glass coverslip, underscoring the strict dependence of the calcium response on UVB (FIG. 6C and FIG. 2A).

[3] = biological target: T1, TRPV4; experiment: 4α-PDD-evoked Ca++ signaling in 1° MK with ET1 co-application; format: cell-based; conditions: fura-2, ET1 co-application
Description: FIG. 7: Central role for keratinocyte TRPV4 in UVB-evoked Ca++ signaling and nocifensive behavior—effects of ET1. (A) Effects of ET1 on UVB-evoked Ca++ signaling in 1° MKs. […] Panel (iii) illustrates the complete elimination of the ET1-augmented Ca++ transients when both subtypes of ET(R) are blocked. (B) 4α-PDD-evoked Ca++ signaling in 1° MKs—ET1-related findings. […] Quantifications are for n=3 mice/group. *** denotes statistically significant (p<0.001, t-test). (D) Nocifensive behavior in response to ET1 footpad injection depends on epidermal TRPV4. Bar diagram summarizes behavioral findings for Trpv4−/−vs. WT and for oil-treated vs. tam-treated iKO mice. […] Trpv4−/− and tam-treated iKO mice fail to respond; n≥7 mice/group, ** p<0.01, ANOVA.
Ca++ imaging of mouse 1° MK in response to chemical activation of TRPV4 was conducted after loading with 2 μM fura2-AM, following a ratiometric Ca2+ imaging protocol with 340/380 nm […] for dual excitation. Ratios of emissions were acquired at 0.5 Hz. ΔR/R0 was determined as the fraction of the increase of a given ratio over baseline ratio, divided by baseline ratio. For stimulation of cells with UVB, where fura-2 was not suitable because of the proximity of stimulation with 340/380 nm and 295 nm, 2 μM fluo4-AM was used instead. Ca++ imaging was carried out at 488 nm excitation, acquisition of emissions at 0.5 Hz, expressed as ΔF/F0. […]

[4] = system: ET1 expression in 1° MK; experiment: ET1 expression by UVB-exposed 1° MK (immunocytochemistry); format: cell-based, mouse; conditions: 295 nm UVB-LED, 24 hours
Description: 1° MK were exposed to UVB using the UV optical system (295 nm LED). 24 hours later the cells were fixed and fluorescently immunolabeled for ET1. Digital images were captured and subjected to morphometry.
Mouse keratinocytes were cultured on collagen coated quartz coverslips and then stimulated from the bottom using the previously mentioned UV optical system using the 295 nm LED. 24 hours later the cells were fixed in 4% formaldehyde in PBS for 20 minutes, permeabilized with 0.1% Triton X-100 in PBS for 10 minutes, washed, then blocked in 10% normal goat serum in PBS for 45 minutes. Coverslips were incubated overnight with primary antibody mouse anti-ET1 (1:200; Abcam), washed three times in PBS and incubated with secondary antibody for 2 hours at 25° C. Coverslips were washed three times in PBS, once with double-distilled H2O. Digital images were captured using a 40× immersion lens on the BX61 Olympus upright microscope. Morphometric analysis was conducted using ImageJ freeware with tailored regions-of-interest.
(§2) We tested whether UVB causes ET1 upregulation in a TRPV4-dependent manner. Given the exquisite wave-length dependence of ET1 expression in 1° MKs, we resorted to the UVB-LED device as for Ca++ imaging (FIG. 6A and FIG. 2A-D). […] Consistent with its effects on UVB-evoked Ca++ transients, PLC-inhibitor U73122 also dampened ET1 expression. […] This leads to TRPV4-dependent Ca++ signaling, which in turn amplifies ET1 signaling in a paracrine/autocrine fashion.

[5] = system: ET1 secretion by 1° MK; experiment: ET1 secretion by non-stimulated 1° MK (ELISA of supernatant); format: cell-based, mouse
Description: FIG. 8: Central role for KC TRPV4 in UVB-evoked Ca^++ signaling and nocifensive behavior—ET1-related supplementary findings. (A) Augmentation of GSK101-evoked Ca^++ signaling by ET1. Shown are averaged Ca^++ measurements (fura-2) in response to 5 nM GSK101. […] (B) ET1 secretion by non-stimulated 1° MK depends on TRPV4 and PLC. Shown are relative ET1 concentrations (determined by ELISA, pg/mL; vehicle-treated and WT control normalized to 100) in supernatant of non-stimulated 1° MK. Note the clear dependence on TRPV4, as indicated by a 50% reduction in Trpv4^−/− 1° MK. […] In addition, PLC-inhibitor robustly affects ET1 secretion in WT and Trpv4^−/− 1° MK. (C) ET1 expression by UVB-exposed 1° MK depends on TRPV4 and PLC—immunocytochemistry. Shown is specific ET1 immunolabeling in 1° MK, exposed to UVB using the UVB-LEDs, as for Ca^++ imaging. Use of the UVB-LED device precluded application of a ET1 ELISA, only irradiated cells could be examined. […] (D) ET1 expression by UVB-exposed 1° MK depends on TRPV4 and PLC—quantification of immunocytochemistry.
as §2

T1 sequence (Q9EPK8 whole entry): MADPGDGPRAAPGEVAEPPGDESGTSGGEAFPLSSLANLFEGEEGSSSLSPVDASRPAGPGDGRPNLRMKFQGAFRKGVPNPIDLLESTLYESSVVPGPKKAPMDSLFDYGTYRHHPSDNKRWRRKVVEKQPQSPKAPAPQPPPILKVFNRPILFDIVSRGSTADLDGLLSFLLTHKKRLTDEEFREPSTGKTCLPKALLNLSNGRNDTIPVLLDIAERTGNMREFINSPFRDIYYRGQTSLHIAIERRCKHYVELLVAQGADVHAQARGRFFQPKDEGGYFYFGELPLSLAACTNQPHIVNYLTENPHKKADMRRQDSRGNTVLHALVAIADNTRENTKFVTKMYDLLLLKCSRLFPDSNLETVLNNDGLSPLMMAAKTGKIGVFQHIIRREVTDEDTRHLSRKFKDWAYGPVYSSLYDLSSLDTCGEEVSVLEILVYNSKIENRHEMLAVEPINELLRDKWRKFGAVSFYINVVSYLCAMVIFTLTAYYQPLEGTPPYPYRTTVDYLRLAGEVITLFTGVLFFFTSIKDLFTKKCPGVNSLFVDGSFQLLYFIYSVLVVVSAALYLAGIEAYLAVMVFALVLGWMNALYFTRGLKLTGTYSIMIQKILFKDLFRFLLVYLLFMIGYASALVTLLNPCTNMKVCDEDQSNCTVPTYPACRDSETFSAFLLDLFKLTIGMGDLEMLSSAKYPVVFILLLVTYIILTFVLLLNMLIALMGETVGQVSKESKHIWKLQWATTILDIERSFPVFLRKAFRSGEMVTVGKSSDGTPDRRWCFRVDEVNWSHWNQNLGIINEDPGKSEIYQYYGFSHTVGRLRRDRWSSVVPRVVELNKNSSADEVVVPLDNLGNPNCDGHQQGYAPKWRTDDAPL

Which “GSK101-evoked Ca++ signaling on co-exposure to ET1” value [1] does the source give for endothelin-1 [ET1] here?
Its value is “augmented; also recorded: increase in signal”.

What about the “UVB-evoked Ca++ signaling” value [2] of the same compound?
The value was “significant increase; also recorded: augmentation”.

What about the “4α-PDD-evoked Ca++ response” value [3] of the same compound?
The value was “significant increase”.

With `CC(C)NCCN(C(C)C)S(=O)(=O)c1ccc(Cl)cc1Cl` [RN1734] as the compound, how does the “ET1 immunoreactivity in UVB-exposed 1° MK” value [4] read?
The value was “diminished; also recorded: significant down-regulation”.

What about the “ET1 secretion by non-stimulated 1° MK” value [5] of the same compound?
The value was “significant down-regulation”.

What does the source list for `COc1ccc2c(c1)CC[C@@H]1[C@@H]2CC[C@]2(C)[C@@H](NCCCCCCN3C(=O)C=CC3=O)CC[C@@H]12` [Compound U73122]?
ET1 immunoreactivity in UVB-exposed 1° MK [4]: dampened; also recorded: significant down-regulation; ET1 secretion by non-stimulated 1° MK [5]: down-regulation of ET1 secretion; UVB-evoked Ca++ signaling [2]: virtually eliminated; also recorded: strongly reduced

Which “ET1-augmented UVB-evoked Ca++ signaling” value [2] does the source give for `CCCC[C@@H](NC(=O)[C@@H](Cc1cn(C(=O)OC)c2ccccc12)NC(=O)[C@H](CC(C)(C)C)NC(=O)N1[C@H](C)CCC[C@@H]1C)C(=O)O` [BQ788] here?
Its value is “attenuated”.

`C=C(C)CCO[P@@](=O)(O)OP(=O)(O)O` [IPP, isopentenyl pyrophosphate] was tested. Which “UVB-evoked Ca++ signaling” value [2] did it give?
The value was “no effect; also recorded: not inhibited”.

What does the source list for `O=C(O)C(Cc1ccc2c(c1)oc1ccccc12)NCP(=O)(O)O` (centres unmarked) [CGS35066]?
ET1 immunoreactivity in UVB-exposed 1° MK [4]: significant down-regulation; ET1 secretion by non-stimulated 1° MK [5]: down-regulation of ET1 secretion; UVB-evoked Ca++ signaling [2]: significantly diminished; also recorded: significant attenuation

Which “ET1-augmented UVB-evoked Ca++ signaling” value [2] does the source give for `CC(C)C[C@@H]1NC(=O)[C@@H](C(C)C)NC(=O)[C@@H]2CCCN2C(=O)[C@@H](CC(=O)O)NC(=O)[C@@H](Cc2c[nH]c3ccccc23)NC1=O` [BQ123] (cyclo(L[dW][dD]P[dV])) here?
Its value is “attenuated”.
